# In patent publication US20220257529A1, “USE OF C[…] THE TREATMENT OF […] SPASMS” (GW Research Limited, priority 2019, published 2022):
# “Also recorded” adds a separate entry of the source.
# What was measured:
# epileptic spasms [1] = conditions: first-line treatment of epileptic spasms; cited from earlier work
# epileptic spasms [2] = assay: Treatment history of enrolled patients before CBD; assay type: in vivo, human; conditions: before initiation of CBD treatment
# [3] = system: other seizure types (tonic-clonic seizures); assay: Open label, expanded-access program: other seizure types; assay type: in vivo, human
# Experimental: (§1) Patients were administered botanically derived purified CBD in a 100 mg/mL sesame oil-based solution at an initial dose of five milligrams per kilogram per day (mg/kg/day) in two divided doses. Dose was then increased weekly by 5 mg/kg/day to a goal of 25 mg/kg/day.
# (§2) Seizure frequency, intensity, and duration were recorded by caregivers in a diary during a baseline period of at least 28 days. Changes in seizure frequency relative to baseline were calculated after 2 weeks and 1, 2, 3, 4, 6, 9 and 12 months of treatment. Epileptic spasms were counted by clusters.
# [4] = system: refractory epileptic spasms (ES); assay: Open label, expanded-access program: epileptic spasm frequency relative to baseline (caregiver diary); assay type: in vivo, human; conditions: for Percent Change in Spasm Frequency, Average: average of nine patients; for Percent Change in Spasm Frequency at CBD dose, Average: average of patients
# Experimental: Subjects were required to be on one or more AEDs at stable doses for a minimum of two weeks prior to baseline and to have stable vagus nerve stimulation (VNS) settings and ketogenic diet ratios for a minimum of four weeks prior to baseline.
# as §1
# (§3) A maximum dose of 50 mg/kg/day could be utilised for patients who were tolerating the medication but had not achieved seizure control; these patients had further weekly titration by 5 mg/kg/day.
# There were nine patients in this study, and each received CBD for at least 12 months. Modifications were made to concomitant AEDs as per clinical indication.
# as §2
# Patients were defined as responders if they had more than 50% reduction in seizure frequency compared to baseline. […] The percent change in seizure frequency was calculated as follows: […]
# The percent change reported at each time interval reflects reported seizure frequency over the past month relative to baseline. The EEG findings were correlated to the corresponding month seizure frequency change as well as the baseline seizure frequency.
# [5] = Open label, expanded-access program: caregiver logs of cognitive changes, behavioural changes and adverse events; assay type: in vivo, human
# Experimental: as §1, §3
# During subsequent follow-up visits, parents provided weekly logs regarding cognitive changes, behavioural changes, and adverse events while taking CBD. Additionally, subjects had electroencephalogram (EEG) testing prior to and after the initiation of CBD.
compound,measurement,setting,value
"C=CC(N)CCC(=O)O (stereo not shown) [VGB, vigabatrin]",significant risks,epileptic spasms [1],visual field defects
same,outcome of treatment before CBD,epileptic spasms [2],lack of efficacy
"Adrenocorticotropin hormone (SYSMEHFRWGKPVGKKRRPVKVYPNGAEDESAEAFPLEF; Corticotropin; UniProt P01189 138-176, looked up) [ACTH, preferred first-line treatment of epileptic spasms]",significant risks,epileptic spasms [1],increased risk of infection
same,outcome of treatment before CBD,epileptic spasms [2],without significant benefit
"C=C(C)[C@@H]1CCC(C)=C[C@H]1c1c(O)cc(CCCCC)cc1O [CBD, cannabidiol]",freedom from tonic-clonic seizures,[3]; after starting CBD treatment,one patient became seizure free of tonic-clonic seizures
same,frequency of other seizure types,[3]; other seizure types experienced by the patients,effective in reducing the frequency of other seizure types
same,Responder rate at CBD dose,[4]; 10 mg/kg/day,66.70%
same,Responder rate at CBD dose,[4]; 20 mg/kg/day,77.80%
same,Responder rate at CBD dose,[4]; 25 mg/kg/day,66.70%
same,Responder rate at CBD dose,[4]; 35 mg/kg/day,57.10%
same,Responder rate at CBD dose,[4]; 45 mg/kg/day,80.00%
same,Responder rate at CBD dose,[4]; 50 mg/kg/day,83.30%
same,Responder Rate (percent of patients with a greater than 50% reduction in spasm frequency),[4]; 1 month of treatment,77.8%
same,Responder Rate (percent of patients with a greater than 50% reduction in spasm frequency),[4]; 2 months of treatment,66.7%
same,Responder Rate (percent of patients with a greater than 50% reduction in spasm frequency),[4]; 2 weeks of treatment,66.7%
same,Responder Rate (percent of patients with a greater than 50% reduction in spasm frequency),[4]; 3 months of treatment,55.6%
same,Responder Rate (percent of patients with a greater than 50% reduction in spasm frequency),[4]; 6 months of treatment,77.8%
same,Responder Rate (percent of patients with a greater than 50% reduction in spasm frequency),[4]; 9 months of treatment,77.8%
same,Responder Rate (percent of patients with a greater than 50% reduction in spasm frequency),[4]; 12 months of treatment,77.8%
same,patients spasm-free,"[4]; after 12 months of treatment, five of nine patients",55.6%
same,patients epileptic spasm-free,[4]; after one month of CBD treatment,One patient was epileptic spasm-free
same,patients epileptic spasm-free,[4]; after two months of CBD treatment,two other patients were epileptic spasm-free
same,"Percent Change in Spasm Frequency, Average",[4]; 1 month,−67.20%
same,"Percent Change in Spasm Frequency, Average",[4]; 2 months,−64.10%
same,"Percent Change in Spasm Frequency, Average",[4]; 2 weeks,−67.50%
same,"Percent Change in Spasm Frequency, Average",[4]; 3 months,−59.00%
same,"Percent Change in Spasm Frequency, Average",[4]; 6 months,−73.70%
same,"Percent Change in Spasm Frequency, Average",[4]; 9 months,−61.53%
same,"Percent Change in Spasm Frequency, Average",[4]; 12 months,−51.35%
same,"Percent Change in Spasm Frequency at CBD dose, Average",[4]; 10 mg/kg/day,−67.50%
same,"Percent Change in Spasm Frequency at CBD dose, Average",[4]; 20 mg/kg/day,−67.20%
same,"Percent Change in Spasm Frequency at CBD dose, Average",[4]; 25 mg/kg/day,−61.40%
same,"Percent Change in Spasm Frequency at CBD dose, Average",[4]; 35 mg/kg/day,−56.00%
same,"Percent Change in Spasm Frequency at CBD dose, Average",[4]; 45 mg/kg/day,−80.90%
same,"Percent Change in Spasm Frequency at CBD dose, Average",[4]; 50 mg/kg/day,−50.20%
same,effect on number of epileptic spasms (in words),"[4]; overall conclusion of the program, adjunctive to AEDs",significantly reduce the number of epileptic spasms; also recorded: significant reduction in epileptic spasms
same,seizure freedom in patients suffering from TSC,"[4]; patients 6, 7 and 8, after 12 months of treatment",all three were completely seizure free
same,"patients with caregiver-reported sustained improvements in alertness, verbal capacity and communications, cognitive availability, initiation of emotional and physical connections",[5]; four of nine patients,44%
same,adverse event leading to dose reduction,"[5]; patients 3 and 6 at 45 mg/kg/day and 50 mg/kg/day, reduced to 35 mg/kg/day",diarrhoea
same,improvement in cognitive and behavioural domains (in words),[5]; treatment group of the program,significant improvement in cognitive and behavioural domains
